# Measurements from US20250090513A1, “DOSING REGIMEN OF HIV CAPSID INHIBITOR” (Gilead Sciences, Inc., priority 2023, published 2025).
# Test system: HIV-1
# Experiment: Trough LEN concentration associated with antiviral activity (inhibitory quotient-4)
# Conditions: IQ4 threshold / efficacy target
# Excerpt: Lenacapavir (LEN) is currently approved for the treatment of multidrug-resistant HIV-1 infection in combination with other antiretrovirals for heavily treatment-experienced (HTE) individuals. […] Given the importance of oral loading doses in achieving and maintaining concentrations >IQ4, options to make up for missed oral loading doses were considered. A population-pharmacokinetic (PopPK) model was utilized to simulate various dosing scenarios to guide missed oral loading-dose recommendations for the HTE population.
smiles,measurement,value
"CC(C)(C#Cc1ccc(-c2ccc(Cl)c3c(NS(C)(=O)=O)nn(CC(F)(F)F)c23)c([C@H](Cc2cc(F)cc(F)c2)NC(=O)Cn2nc(C(F)(F)F)c3c2C(F)(F)[C@@H]2C[C@H]32)n1)S(C)(=O)=O [LEN, N-((S)-1-(3-(4-chloro-3-(methylsulfonamido)-1-(2,2,2-trifluoroethyl)-1H-indazol-7-yl)-6-(3-methyl-3-(methylsulfonyl)but-1-yn-1-yl)pyridin-2-yl)-2-(3,5-difluorophenyl)ethyl)-2-((3bS,4aR)-5,5-difluoro-3-(trifluoromethyl)-3b,4,4a,5-tetrahydro-1H-cyclopropa [3,4]cyclopenta [1,2-c]pyrazol-1-yl) acetamide]",mean trough LEN concentration associated with high antiviral activity (inhibitory quotient-4 [IQ4]),15.5 ng/mL
